US20240003872A1, “METHODS FOR ASSAYING AND MEASURING THE EFFICACY OF ANTI-NAUSEA COMPOUNDS” (priority 2020, published 2024)
“Also recorded” adds a separate entry of the source.

Assays:
[1] = system: human intestinal smooth muscle cells (HISMCs); test: HISMC/collagen matrix cell contraction assay; format: cell-based
Experimental: This assay was used to study the ability of […] to reorganize and contract in a collagen matrix. All procedures were done accordingly to protocols described by Dr. Alexander (5-HT3 dependent smooth muscle contraction assay, revised Aug. 30, 2012). The assay consisted in the preparation of collagen solution and in the polymerization and release of […]/collagen matrices. For 12 mL of collagen/[…], 15.0 mg of rat tail collagen was dissolved in 3.2 mL of cold 0.012M HCL. The solution was placed for 30 min in a rocker machine for gently agitation to avoid introducing bubbles. Then, 0.8 mL of cold PBS was added to the tube, mixed well, and kept on ice. The pH of the collagen solution was quickly titrated with 0.5 M NaOH to 7.45, and monitored by pH strips. The final collagen concentration was 1.25 mg/mL. The neutralized cold collagen solution was mixed with 12 mL of cold SMCM/1.5% dialyzed FBS containing […] at desire cell density (1×10^5 cells/mL). 0.5 mL of collagen/[…] mixture was added per well in 24-well plates and was incubated for 1 h at 37° C., 5% CO2. After collagen polymerization, 0.5 mL of culture medium with or without two-time concentration of drug treatments was added atop each collagen gel lattice. The polymerized collagen matrix containing […] was released from the edges of the well with a sterilized heat-blunted Pasteur pipette tip to allow them to float in culture medium, and contraction occurred with or without agonist addition in the absence of external mechanical load. The collagen gel size change (contraction index) was measured by morphometric analysis at various times (0, 24, 48, and 72 h). The culture plates were analyzed in triplicate and monitored at 24 h intervals. At the end of each time point, the plates were scanned via an Epson flatbed scanner.

[2] = system: women after laparascopic gynaecological surgery; details: ginger, 1.25 mg droperidol, vs placebo; cited from earlier work
[3] = system: women after laparascopic gynaecological surgery; details: post-operative; given one hour prior to anaesthesia; placebo 41%; cited from earlier work
[4] = system: Women undergoing gynecological surgery; details: 1.0 g ginger or 10 mg metochlopramide orally prior to surgery; P < .05; cited from earlier work
[5] = system: college students with self-rated high susceptibility to motion sickness; details: 940 mg ginger root or 100 mg Dramamine 25-30 minutes prior to test; P < .001; cited from earlier work

## Cc1nccn1CC1CCc2c(c3ccccc3n2C)C1=O (centres unmarked) [Ondansetron]
[1]; with 5-HT (10^−7M), different concentrations, 0-72 h
  effect on 5-HT induced HISMC/collagen matrix contraction: reduced; also recorded: inhibited HISMCs contractions in a concentration- and time-dependent manner
[1]; without 5-HT, different concentrations, 0-72 h
  effect on HISMC/collagen matrix contraction without 5-HT: inhibited HISMCs contractions in a concentration- and time-dependent manner

## Cl.NCCc1c[nH]c2ccc(O)cc12 [5-HT, 5-Hydroxytryptamine hydrochloride]
[1]; 5-HT at 10^−7M, 10^−8M and 10^−9M
  contraction of HISMC gels induced by agonist: induced dose and time dependent contraction

## O=C(CCCN1CC=C(n2c(=O)[nH]c3ccccc32)CC1)c1ccc(F)cc1 [droperidol]
[2]
  decrease in nausea or vomiting post-surgery: no differences

## CCN(CC)CCNC(=O)c1cc(Cl)c(N)cc1OC [metochlopramide]
[3]
  patients nauseated: placebo, 27%
[4]
  effectiveness versus placebo for post-operative nausea and vomiting control: significantly more effective than placebo

## C[C@@H](O[C@H]1OCCN(Cc2n[nH]c(=O)[nH]2)[C@H]1c1ccc(F)cc1)c1cc(C(F)(F)F)cc(C(F)(F)F)c1 [Aprepitant]
[1]; different concentrations, with or without 5-HT3
  effect on HISMC/collagen gel contraction: attenuated collagen gel contraction only at high concentrations, 10^−4 M and not significantly

## CN(C)CCOC(c1ccccc1)c1ccccc1 [diphenhydramine]
[5]
  reducing vection induced motion sickness versus placebo (time in induced motion): more effective than dried chickweed herb placebo
